Reference: US20230413808A1, “Bioactive complexes” (priority 2020, published 2023)

Tests used:
[1] = system: Trifolium repens (Clover); test: Herbicide efficacy of glyphosate on clover; assay type: in vivo
Description: (§1) The efficacy of glyphosate is often sub-optimal because after drying of the glyphosate active ingredient on the plant tissue the rate of uptake is reduced (dry glyphosate is taken up poorly by the plant tissue). A complex of glyphosate-polycation with improved humectancy properties will remain longer as a wet film on the plant tissue, thereby enhancing uptake of glyphosate in the plant tissue and enhancing its herbicidal activity. In this experiment the effect of a formed complex on efficacy of glyphosate was assessed. The experiment was performed with hard water (500 ppm CaCO3) and with soft water (50 ppm CaCO3).
(§2) The following method was used. Seeds of rye grass and clover were sown in 2 L plastic pots (10 seeds pot) and grown in Lentse Potgrond (Horticoop; Bleiswijk, the Netherlands) in a greenhouse at 22° C. and at light 16 h and dark 8 h, humidity 75%. The experiment was carried out with 2 pots (replications) per treatment. The pots were watered as to keep the plants growing optimal. At the four-five leaf stage, when plants reached a height of 15-20 cm, they were sprayed with the glyphosate treatments with and without PAA (formulations: see Table 12). The spray was such that the plants were wetted completely and uniform. 12 days after the glyphosate treatments, the fresh weight and dry weight of the parts of the plants that were above ground were measured (grams). For dry weight, plants were first dried in an oven at 67 degree Celsius for 48 hours and weight was measured.
(§3) With the method described above rye grass plants were sprayed with two glyphosate formulations: • A. 2700 ppm glyphosate plus 270 ppm complexed with PAA at a 10:1 ratio (glyphosate:PAA; w/w) (formulation see Table 12). • B. 2700 ppm glyphosate without PAA (formulation, see Table 12).

[2] = Visual interaction of active ingredient with polyelectrolyte PAA; assay type: physicochemical
Method: To determine interaction between polyelectrolytes (PE; Table 1) and active ingredients (AI; Table 2) aqueous stock solutions of about 200 g/L of the PE and of the active ingredients were prepared. The polyelectrolytes were diluted in water and stirred on magnetic stirrer for at least 30 minutes until a homogenous clear solution was obtained (ratios and amounts are presented in Table 4). The active ingredients were dissolved in water on magnetic stirrer or, if they weren't water soluble, suspended in water and milled by adding glass beads (1 mm) in a stainless steel metal beaker until they reach a volume-based average particle size below 20 μm (90% of particles below 20 μm), as determined by laser diffraction. After that the mixture was filtered with a sieve to remove glass beads and the filtrate was used for further analysis.
A polyelectrolyte solution, PAA or chitosan, was added to a 100-150 mL glass beaker, followed by water and an active ingredient solution/suspension. The mixture was stirred for at least 4 hours, and samples were observed after at least 16 hours. The visual observable interactions were divided into five categories (see Table 3). The categories were chosen by comparison to a blank sample containing the same concentration of active ingredient in water but without polyelectrolyte. […] Interactions were studied over a large range of active ingredient to polyelectrolyte ratios, including 10.000:1 (w/w), 1000:1 (w/w), 100:1 (w/w), 10:1 (w/w), 1:1 (w/w), 1:10 (w/w), 1:100 (w/w) and 1:1000) (w/w).

Humectancy assay = assay type: physicochemical; settings: dried at 54° C., then 97% relative humidity at 25° C.; weight after/before x 100
Method: The complexes of the interaction assay were used to conduct a humectancy assay. […] After reweighing on an analytical balance, the trays were placed in a climate chamber and stored for at least 2 days at 54° C. or until no further weight change was observed. […] The air tight box was 20 cm×12 cm×7 cm. In the box a chicken wire construct was used to create two levels with 10-20 ml of saturated solution of dipotassium sulfate in a petri dish in a lower level, and the samples in an upper level. Boxes were located into an incubator at 25° C. The boxes were incubated for at least 5 days at 25° C. before use to allow equilibration of temperature and humidity. Hereafter, the trays were reweighed.
The change in humectancy by combining a pesticide and polyelectrolyte is expressed as percent value by multiplying the sample weight after incubation (w2) with 100 divided with the sample weight before incubation (w1) using the following equation: […]
To evaluate the effect of the interaction of the active ingredient and polyelectrolyte on humectancy (synergetic/antagonistic/no effect), the determined Humectancy of the samples containing both active ingredient and polyelectrolyte “Humectancy (blend)” was divided by the theoretical value of Humectancy of the blend provided by respective proportion (% AI; % PE) of each pesticide and polyelectrolyte using the following equation: […]
According to this formula, a positive result of more than 1 is indicative of synergy.
The complexes obtained with the method of WO2010035118, with both ratios of 2:1 and 1:5 (PAA:AI) were tested for humectancy. […] For each sample, the test was carried in triplicate.
For each sample, the test was carried in triplicate.

[3] = system: Lolium perenne (Ryegrass); test: Herbicide efficacy of glyphosate on rye grass; assay type: in vivo; settings: for Extra reduction in dry weight: complex formation with PAA vs without PAA, first statement of b170; for Extra reduction in dry weight (second statement): second statement of b170
Description: as §1, §2, §3

[4] = Visual interaction with polyanion sodium lignosulfonate; assay type: physicochemical; settings: visible complex formation
[5] = soft water, complex formation with PAA vs without PAA

O=C(O)CNCP(=O)(O)O [Glyphosate, N-(phosphonomethyl)glycine]
Extra reduction in dry weight ([1]; hard water, complex formation with PAA (Formulation A) vs without PAA (Formulation B)): 74%
Extra reduction in fresh weight ([1]; hard water, complex formation with PAA vs without PAA): 38%
Extra reduction in dry weight [1, 5]: 47%
Extra reduction in fresh weight [1, 5]: 44%
Visual observation category, Active ingredient: PAA ([2]; ratio active ingredient:PAA 1.000:1 (w/w)): N
Visual observation category, Active ingredient: PAA ([2]; ratio active ingredient:PAA 1:1 (w/w)): N
Visual observation category, Active ingredient: PAA ([2]; ratio active ingredient:PAA 1:10 (w/w)): N
Visual observation category, Active ingredient: PAA ([2]; ratio active ingredient:PAA 1:100 (w/w)): N
Visual observation category, Active ingredient: PAA ([2]; ratio active ingredient:PAA 1:1000 (w/w)): N
Visual observation category, Active ingredient: PAA ([2]; ratio active ingredient:PAA 10.000:1 (w/w)): N
Humectancy (Humectancy assay): 231.3%
Extra reduction in dry weight ([3]; hard water): 56%
Extra reduction in dry weight (second statement) ([3]; hard water): 48%
Extra reduction in dry weight ([3]; soft water): 44%
Extra reduction in dry weight (second statement) ([3]; soft water): 46%
Interaction with the polyanion sodium lignosulfonate [4]: did not form a visible complex
